Data set [1] deals with K. pneumoniae (ATCC 10031). It counts as cell-based, Klebsiella pneumoniae.
Data set [2] has as its target K. pneumoniae DHFR (Klebsiella pneumoniae, UniProt A6T4I4). Put plainly: biochemical.
Data set [3] has as its system E. coli (ATCC 25922). Format: cell-based.
Data set [4] deals with K. pneumoniae (ATCC 10031). Put plainly: microbe, parasite or virus in culture. Format: cell-based. The settings on record: Klebsiella pneumoniae, ATCC10031, read-out: MIC in the presence of thymidine.

Values after ≈ are worked out from the molar mass of the structure shown.

As to `COc1cc(Cc2cnc(N)nc2N)cc(OC)c1OC` [TMP, trimethoprim], the “MIC Kp” value in data set [1] is 0.0781 µg/mL (≈ 0.269 µM). Half-maximal inhibition in data set [2] (IC50) required 106 ± 6 nM. The “Time-kill: bacteriostatic or bactericidal” value in data set [3] is on record as “bacteriostatic”. The MIC in data set [4] is over 20 µg/mL.

These data come from paper PMC5108240 (ACS infectious diseases, 2016).
